Patent US20230339937A1, “CONDENSED RING COMPOUNDS THAT INHIBIT H-PGDS” (SATO PHARMACEUTICAL CO., LTD., priority 2020, published 2023)

Biological target: T1, Recombinant human H-PGDS (Homo sapiens, UniProt O60760)
T1 construct: made in house; host or cells: E. coli
Assay: H-PGDS inhibitory activity (prostaglandin D2 production from prostaglandin H2, measured by LC-MS/MS)
Assay type: biochemical
Details: recombinant human H-PGDS 1.0 nM expressed in E. coli; prostaglandin H2 25 μM; preincubated 15 minutes on ice, reacted on ice for 1 minute; concentration that inhibits prostaglandin D2 production by 50%
Method: The H-PGDS inhibitory activity of each Example compound was measured according to the method reported by LIN, Jiang. et al. (NO 2007/041634).
Recombinant human H-PGDS (final concentration: 1.0 nM) expressed in E. coli was mixed in an assay buffer containing 20 mM Tris-HCl (pH 8.0), 2 mM magnesium chloride, 2 mM reduced glutathione, and 0.5 mg/mL γ-globulin, and 150 μL of the mixture was dispensed into a 8-strip PCR tube (BM Equipment Co., Ltd.). Test compounds (Example compounds) (16.5 μL) at various concentrations dissolved in DMSO were added and the mixture was preincubated for 15 minutes on ice.
Prostaglandin H2 (final concentration: 25 μM) (Cayman Chemical) was dispensed into another 8-strip PCR tube, and the solvent was dried and solidified using a vacuum concentrator (Thermo Fisher Scientific). To the dried and solidified prostaglandin H2 was added 50 μL of the assay buffer containing H-PGDS and each test compound after the preincubation, and the mixture was reacted on ice for 1 minute. 45 μL of this mixture was added to 45 μL of a stop solution (50 mM aqueous citric acid solution containing iron chloride at a final concentration of 4 mg/mL) to stop the reaction. Then, the reaction solution was deproteinized, added to a 96 square deep well plate (SHONANMARUHACHI STEC Co., Ltd.), and the prostaglandin D2 concentration in the reaction solution was measured by LC-MS/MS. ACQUITY (registered trademark) TQD (Waters) was used as a measuring instrument.
Prostaglandin Da production activity (f) in the group with each test compound when a value obtained by subtracting the amount of production of prostaglandin D2 in the group without enzyme, which is non-specific production of prostaglandin D2, from the amount of production of prostaglandin Da in the group without test compound (DMSO-addition group) in each 8-strip PCR tube is 100% was calculated.

T1 sequence (O60760 whole entry): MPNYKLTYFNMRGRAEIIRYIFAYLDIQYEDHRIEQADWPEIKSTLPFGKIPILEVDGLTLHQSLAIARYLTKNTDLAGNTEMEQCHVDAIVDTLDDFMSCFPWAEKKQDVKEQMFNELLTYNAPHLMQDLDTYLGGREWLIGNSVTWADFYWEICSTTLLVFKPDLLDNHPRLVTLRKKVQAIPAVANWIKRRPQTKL

Structure (SMILES)	IC50 [nM]
CC(C)(O)[C@@H]1CC[C@@H](NC(=O)c2ccc(-c3nccc4occc34)cc2)CO1 [Example 214, 4-(furo[3,2-c]pyridin-4-yl)-N-[(3R,6S)-6-(2-hydroxypropan-2-yl)tetrahydro-2 H-pyran-3-yl]benzamide]	3.4
O=C(N[C@H]1COCCN(c2ncccn2)C1)c1ccc(-c2nccc3occc23)cc1 [Example 225, (R)-4-(furo[3,2-c]pyridin-4-yl)-N-[4-(pyrimidin-2-yl)-1,4-oxazepan-6-yl]benzamide]	6.5
O=C(Nc1ccccc1)c1ccc(-c2nccc3occc23)cc1 [Example 89, 4-(furo[3,2-c]pyridin-4-yl)-N-phenylbenzamide]	3.7
Cc1cc2occc2c(-c2ccc(C(=O)N[C@H]3CC[C@H](C4(O)CC4)CC3)cc2)n1 [Example 334, N-[trans-4-(1-hydroxycyclopropyl)cyclohexyl]-4-(6-methylfuro[3,2-c]pyridin-4-yl)benzamide]	2
O=C(NC1CCN(c2nn[nH]n2)CC1)c1ccc(-c2nccc3occc23)cc1 [Example 248, N-[1-(1H-tetrazol-5-yl)piperidin-4-yl]-4-(furo[3,2-c]pyridin-4-yl)benzamide]	4.4
O=C(NC1CC1)c1ccc(-c2nccc3occc23)cc1 [Example 95, N-cyclopropyl-4-(furo[3,2-c]pyridin-4-yl)benzamide]	8.7
Cc1coc2ccnc(-c3ccc(C(=O)N[C@H]4CC[C@H](C(C)(C)O)CC4)cc3)c12 [Example 130, N-[trans-4-(2-hydroxypropan-2-yl)cyclohexyl]-4-(3-methylfuro[3,2-c]pyridin-4-yl)benzamide]	6.8
O=C(NC1C2CC3CC1CC(O)(C3)C2)c1ccc(-c2nccc3occc23)cc1 (stereo not drawn) [Example 272, 4-(furo[3,2-c]pyridin-4-yl)-N-(trans-5-hydroxyadamantan-2-yl)benzamide]	2.4
O=C(NCc1ccco1)c1ccc(-c2nccc3[nH]ccc23)cc1 [Example 26, N-(furan-2-ylmethyl)-4-(1H-pyrrolo[3,2-c]pyridin-4-yl)benzamide]	1.7
O=C(Nc1ccncc1)c1ccc(-c2nccc3occc23)cc1 [Example 108, 4-(furo[3,2-c]pyridin-4-yl)-N-(pyridin-4-yl)benzamide]	5
CNC(=O)c1ccc(-c2nccc3[nH]ccc23)cc1 [Example 1, N-methyl-4-(1H-pyrrolo[3,2-c]pyridin-4-yl)benzamide]	2.7
O=C(Nc1ccc(N2CCC(C(=O)N3CCOCC3)CC2)c(F)c1)c1ccc(-c2nccc3occc23)cc1 [Example 223, N-{3-fluoro-4-[4-(morpholine-4-carbonyl)piperidin-1-yl]phenyl}-4-(furo[3,2-c]pyridin-4-yl)benzamide]	5.3
O=C(N[C@@H]1CN(c2ncc(CO)cn2)C[C@H]1O)c1ccc(-c2nccc3occc23)cc1 [Example 207, 4-(furo[3,2-c]pyridin-4-yl)-N-((3R,4R)-4-hydroxy-1-[5-(hydroxymethyl)pyrimidin-2-yl]pyrrolidin-3-yl)benzamide]	6.7
NS(=O)(=O)c1cccc(NC(=O)c2ccc(-c3nccc4occc34)cc2)c1 [Example 105, 4-(furo[3,2-c]pyridin-4-yl)-N-(3-sulfamoylphenyl) benzamide]	2.3
O=C(NCC1CC1)c1ccc(-c2nccc3occc23)cc1 [Example 83, N-(cyclopropyl-methyl)-4-(furo[3,2-c]pyridin-4-yl)benzamide]	15
CO[C@@H]1CN(c2ncc(CO)cn2)C[C@H]1NC(=O)c1ccc(-c2nccc3occc23)cc1 [Example 205, 4-(furo[3,2-c]pyridin-4-yl)-N-((3R,4R)-1-[5-(hydroxymethyl)pyrimidin-2-yl]-4-methoxypyrrolidin-3-yl)benzamide]	5.6

Now those with a lower IC50, led by results:

IC50 [nM]	Structure (SMILES)
0.45	O=C(NC1CCN(c2ccccn2)CC1)c1ccc(-c2nccc3occc23)cc1 [Example 118, 4-(furo[3,2-c]pyridin-4-yl)-N-[1-(pyridin-2-yl)piperidin-4-yl]benzamide]
0.94	O=C(NC1CCN(c2ncccn2)CC1)c1ccc(-c2nccc3[nH]ccc23)cc1 [Example 336, N-[1-(pyrimidin-2-yl)piperidin-4-yl]-4-(1H-pyrrolo[3,2-c]pyridin-4-yl)benzamide]
0.98	CCOCCNC(=O)c1ccc(-c2nccc3[nH]ccc23)cc1 [Example 27, N-(2-ethoxyethyl)-4-(1H-pyrrolo[3,2-c]pyridin-4-yl)benzamide]
1.6	CCCn1nnnc1N1CCC(NC(=O)c2ccc(-c3nccc4occc34)cc2)CC1 [Example 240, 4-(furo[3,2-c]pyridin-4-yl)-N-[1-(1-propyl-1H-tetrazol-5-yl)piperidin-4-yl]benzamide]
1.6	O=C(N[C@H]1CC[C@H](C2(O)CC2)CC1)c1ccc(-c2nccc3occc23)cc1 [Example 257, 4-(furo[3,2-c]pyridin-4-yl)-N-[trans-4-(1-hydroxycyclopropyl)cyclohexyl]benzamide]
0.64	O=C(NCc1ccc(Cl)cc1)c1ccc(-c2nccc3[nH]ccc23)cc1 [Example 58, N-(4-chlorobenzyl)-4-(1H-pyrrolo[3,2-c]pyridin-4-yl)benzamide]
1.2	O=C(NC12CCC(O)(CC1)CC2)c1ccc(-c2nccc3occc23)c(F)c1 [Example 345, 3-fluoro-4-(furo[3,2-c]pyridin-4-yl)-N-(4-hydroxybicyclo[2.2.2]octan-1-yl)benzamide]
0.97	O=C(NC1CCN(c2nccc(=O)[nH]2)CC1)c1ccc(-c2nccc3occc23)cc1 [Example 179, 4-(furo[3,2-c]pyridin-4-yl)-N-[1-(6-oxo-1,6-dihydropyrimidin-2-yl)piperidin-4-yl]benzamide]
0.69	CCOC(=O)c1cnc(N2CCC(NC(=O)c3ccc(-c4nccc5occc45)cc3)CC2)nc1 [Example 158, Ethyl 2-{4-[4-(furo[3,2-c]pyridin-4-yl)benzamide]piperidin-1-yl}pyrimidine-5-carboxylate]
1.1	O=C(NC1CCCC1)c1ccc(-c2nccc3[nH]ccc23)cc1 [Example 12, N-cyclopenthyl-4-(1H-pyrrolo[3,2-c]pyridin-4-yl)benzamide]
1.1	O=C(N[C@H]1CC[C@H](C2(O)CC2)CC1)c1ccc(-c2nccc3occc23)c(F)c1 [Example 327, 3-fluoro-4-(furo[3,2-c]pyridin-4-yl)-N-[trans-4-(1-hydroxycyclopropyl)cyclohexyl]benzamide]
1.2	NS(=O)(=O)c1cnc(N2CCC(NC(=O)c3ccc(-c4nccc5occc45)cc3)CC2)nc1 [Example 177, 4-(furo[3,2-c]pyridin-4-yl)-N-[1-(5-sulfamoylpyrimidin-2-yl)piperidin-4-yl]benzamide]
0.63	O=C(N[C@H]1CCN(c2ncccn2)C1)c1ccc(-c2nccc3occc23)cc1 [Example 191, (S)-4-(furo[3,2-c]pyridin-4-yl)-N-[1-(pyrimidin-2-yl)pyrrolidin-3-yl]benzamide]
0.83	N#Cc1cnc(N2CCC(NC(=O)c3ccc(-c4nccc5occc45)cc3)CC2)nc1 [Example 173, N-[1-(5-cyanopyrimidin-2-yl)piperidin-4-yl]-4-(furo[3,2-c]pyridin-4-yl)benzamide]
1	O=C(NC1CCN(c2cccc(F)n2)CC1)c1ccc(-c2nccc3occc23)cc1 [Example 147, N-[1-(6-fluoropyridin-2-yl)piperidin-4-yl]-4-(furo[3,2-c]pyridin-4-yl)benzamide]
